Results taken from patent publication US8415469B2, “Compounds and methods for kinase modulation, and indications therefor” (Plexxikon Inc., priority 2005, dated 2013).
pIC50: −log10 of the molar value.

Experiments:
Type in all cases: biochemical
Kit = target: T1, Kit (Homo sapiens, UniProt P10721); assay: AlphaScreen kinase assay, Kit; conditions: read-out: IC50, activity toward kinase Kit
T1 construct: P1332.N6 BI PTP KIT M552-K948-X COD; His6 (N); made in house; host or cells: E. coli (PTP1B co-expressed)

Plk1 = Plk1 (Homo sapiens, UniProt P53350); assay: AlphaScreen kinase assay, Plk1; conditions: read-out: IC50, activity toward kinase Plk1
Plk1, sequence (P53350 whole entry): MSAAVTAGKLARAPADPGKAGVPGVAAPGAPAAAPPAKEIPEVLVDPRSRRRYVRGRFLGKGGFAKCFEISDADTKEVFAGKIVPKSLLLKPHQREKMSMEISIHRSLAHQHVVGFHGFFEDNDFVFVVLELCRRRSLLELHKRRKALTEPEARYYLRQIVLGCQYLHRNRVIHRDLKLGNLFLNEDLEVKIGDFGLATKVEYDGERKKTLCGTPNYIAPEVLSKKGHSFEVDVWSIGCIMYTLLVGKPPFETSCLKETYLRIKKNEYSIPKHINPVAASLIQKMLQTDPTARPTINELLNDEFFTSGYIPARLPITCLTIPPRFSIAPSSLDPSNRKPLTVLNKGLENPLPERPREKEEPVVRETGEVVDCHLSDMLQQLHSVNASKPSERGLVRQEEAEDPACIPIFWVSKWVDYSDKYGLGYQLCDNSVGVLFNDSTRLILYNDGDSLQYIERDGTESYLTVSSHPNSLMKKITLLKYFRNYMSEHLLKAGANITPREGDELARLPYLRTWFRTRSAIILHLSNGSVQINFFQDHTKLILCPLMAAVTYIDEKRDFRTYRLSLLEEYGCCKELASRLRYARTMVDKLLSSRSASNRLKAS
Source text: AlphaScreen assay was used to screen additional kinases. The assay is similarly dependent on the phosphorylation of a peptide substrate. In this assay, an antibody that recognizes phosphorylated substrate is bound to an acceptor bead. The peptide substrate is attached to biotin, which binds to a donor head that contains streptavidin. Thus phosphorylated substrate is bound by antibody and streptavidin, bringing the donor and acceptor heads into close proximity when kinase is not inhibited. The donor produces singlet oxygen which results in emission from the acceptor when they are in close proximity. Conversely, when kinase is inhibited, the donor and acceptor beads are not associated and the emission from the acceptor is reduced.
AlphaScreen assays were done using compounds dissolved in DMSO to a concentration of 20 mM. The compounds were diluted accordingly to the desired final concentrations in each sample well, using 1:3 serial dilution for a total of 8 concentration points.

Flt1 = target: T2, Flt1 (Homo sapiens, UniProt P17948); assay: AlphaScreen kinase assay, Flt1; conditions: read-out: IC50, activity toward kinase Flt1
T2 construct: P1826.pETN6 BI-PTP FLT1 M799-D1165-X WT; His6 (N); made in house; host or cells: E. coli (PTP1B co-expressed)
T2 sequence (P17948 with tags, fused parts or gaps): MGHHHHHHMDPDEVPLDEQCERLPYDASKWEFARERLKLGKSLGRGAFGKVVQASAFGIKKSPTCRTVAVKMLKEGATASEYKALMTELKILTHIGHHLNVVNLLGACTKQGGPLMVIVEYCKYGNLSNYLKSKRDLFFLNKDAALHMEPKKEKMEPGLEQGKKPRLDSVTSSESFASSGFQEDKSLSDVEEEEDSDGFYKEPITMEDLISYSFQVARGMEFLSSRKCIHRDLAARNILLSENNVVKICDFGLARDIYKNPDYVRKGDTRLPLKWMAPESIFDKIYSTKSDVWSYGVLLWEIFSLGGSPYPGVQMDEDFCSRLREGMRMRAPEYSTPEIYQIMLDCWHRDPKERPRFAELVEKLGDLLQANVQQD

MAP2K1 = target: T3, MAP2K1 (Homo sapiens, UniProt Q02750); assay: Z'-Lyte FRET kinase assay (Invitrogen), MAP2K1; conditions: read-out: IC50, activity toward kinase MAP2K1
T3 construct: purchased Invitrogen (assay run by Invitrogen)
T3 sequence (Q02750 whole entry): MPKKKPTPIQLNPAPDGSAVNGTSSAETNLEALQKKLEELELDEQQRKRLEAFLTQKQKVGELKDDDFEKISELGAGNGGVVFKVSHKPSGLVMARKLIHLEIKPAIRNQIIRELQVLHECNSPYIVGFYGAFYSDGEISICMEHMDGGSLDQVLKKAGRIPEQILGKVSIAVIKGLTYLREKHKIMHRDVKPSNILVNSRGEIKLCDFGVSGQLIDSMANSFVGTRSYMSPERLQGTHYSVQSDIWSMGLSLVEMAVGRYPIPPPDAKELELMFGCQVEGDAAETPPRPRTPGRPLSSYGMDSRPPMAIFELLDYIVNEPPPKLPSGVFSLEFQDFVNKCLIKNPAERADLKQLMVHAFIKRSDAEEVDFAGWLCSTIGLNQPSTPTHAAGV

Kdr = target: T4, Kdr (Homo sapiens, UniProt P35968); assay: Z'-Lyte FRET kinase assay (Invitrogen), Kdr; conditions: read-out: IC50, activity toward kinase Kdr
T4 construct: purchased Invitrogen (assay run by Invitrogen)
T4 sequence (P35968 20-1356): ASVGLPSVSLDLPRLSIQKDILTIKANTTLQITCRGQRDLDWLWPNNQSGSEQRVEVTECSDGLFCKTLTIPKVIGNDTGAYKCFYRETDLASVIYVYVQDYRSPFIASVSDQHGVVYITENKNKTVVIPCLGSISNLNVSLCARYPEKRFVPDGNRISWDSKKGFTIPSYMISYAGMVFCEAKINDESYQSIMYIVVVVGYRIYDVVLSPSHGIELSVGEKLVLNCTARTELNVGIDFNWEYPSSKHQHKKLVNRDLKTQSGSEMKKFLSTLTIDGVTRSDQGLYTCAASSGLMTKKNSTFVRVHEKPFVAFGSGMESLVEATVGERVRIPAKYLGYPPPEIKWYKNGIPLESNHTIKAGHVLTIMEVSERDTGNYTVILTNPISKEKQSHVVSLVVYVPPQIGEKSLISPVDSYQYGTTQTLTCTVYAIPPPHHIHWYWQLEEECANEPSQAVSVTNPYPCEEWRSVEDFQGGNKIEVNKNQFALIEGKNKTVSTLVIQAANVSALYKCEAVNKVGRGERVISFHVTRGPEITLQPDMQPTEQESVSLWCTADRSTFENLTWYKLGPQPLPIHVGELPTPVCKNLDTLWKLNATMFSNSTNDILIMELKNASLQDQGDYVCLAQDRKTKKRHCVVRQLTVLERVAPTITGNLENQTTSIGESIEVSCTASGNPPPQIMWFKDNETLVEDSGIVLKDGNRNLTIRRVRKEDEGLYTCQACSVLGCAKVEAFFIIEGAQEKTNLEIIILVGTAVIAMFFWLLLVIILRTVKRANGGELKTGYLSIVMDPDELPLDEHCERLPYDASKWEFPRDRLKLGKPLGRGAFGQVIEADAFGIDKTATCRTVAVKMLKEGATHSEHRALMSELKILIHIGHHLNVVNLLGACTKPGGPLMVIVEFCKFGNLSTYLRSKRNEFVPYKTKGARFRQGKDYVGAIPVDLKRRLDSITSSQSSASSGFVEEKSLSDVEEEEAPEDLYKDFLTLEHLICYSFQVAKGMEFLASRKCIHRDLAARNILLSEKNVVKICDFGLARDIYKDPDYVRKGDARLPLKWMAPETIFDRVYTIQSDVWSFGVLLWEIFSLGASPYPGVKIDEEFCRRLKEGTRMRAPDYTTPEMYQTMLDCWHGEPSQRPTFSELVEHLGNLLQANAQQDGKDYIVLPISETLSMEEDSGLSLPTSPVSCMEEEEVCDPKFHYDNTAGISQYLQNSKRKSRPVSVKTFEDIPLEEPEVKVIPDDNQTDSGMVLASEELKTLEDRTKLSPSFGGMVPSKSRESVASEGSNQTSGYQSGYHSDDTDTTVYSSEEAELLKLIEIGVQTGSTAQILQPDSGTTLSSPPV

Fak = target: T5, Fak (Homo sapiens, UniProt Q05397); assay: AlphaScreen kinase assay, Fak; conditions: read-out: IC50, activity toward kinase Fak
T5 construct: P1358.pFastBacHtb FAK S411-Q686-X; His6 with pFastBacHTb leader (TEV site) (N); made in house; host or cells: Sf9 (baculovirus)

Pyk2 = target: T6, Pyk2 (Homo sapiens, UniProt Q14289); assay: AlphaScreen kinase assay, Pyk2; conditions: read-out: IC50, activity toward kinase Pyk2
T6 construct: purchased Upstate Biotechnology
T6 sequence (Q14289 whole entry): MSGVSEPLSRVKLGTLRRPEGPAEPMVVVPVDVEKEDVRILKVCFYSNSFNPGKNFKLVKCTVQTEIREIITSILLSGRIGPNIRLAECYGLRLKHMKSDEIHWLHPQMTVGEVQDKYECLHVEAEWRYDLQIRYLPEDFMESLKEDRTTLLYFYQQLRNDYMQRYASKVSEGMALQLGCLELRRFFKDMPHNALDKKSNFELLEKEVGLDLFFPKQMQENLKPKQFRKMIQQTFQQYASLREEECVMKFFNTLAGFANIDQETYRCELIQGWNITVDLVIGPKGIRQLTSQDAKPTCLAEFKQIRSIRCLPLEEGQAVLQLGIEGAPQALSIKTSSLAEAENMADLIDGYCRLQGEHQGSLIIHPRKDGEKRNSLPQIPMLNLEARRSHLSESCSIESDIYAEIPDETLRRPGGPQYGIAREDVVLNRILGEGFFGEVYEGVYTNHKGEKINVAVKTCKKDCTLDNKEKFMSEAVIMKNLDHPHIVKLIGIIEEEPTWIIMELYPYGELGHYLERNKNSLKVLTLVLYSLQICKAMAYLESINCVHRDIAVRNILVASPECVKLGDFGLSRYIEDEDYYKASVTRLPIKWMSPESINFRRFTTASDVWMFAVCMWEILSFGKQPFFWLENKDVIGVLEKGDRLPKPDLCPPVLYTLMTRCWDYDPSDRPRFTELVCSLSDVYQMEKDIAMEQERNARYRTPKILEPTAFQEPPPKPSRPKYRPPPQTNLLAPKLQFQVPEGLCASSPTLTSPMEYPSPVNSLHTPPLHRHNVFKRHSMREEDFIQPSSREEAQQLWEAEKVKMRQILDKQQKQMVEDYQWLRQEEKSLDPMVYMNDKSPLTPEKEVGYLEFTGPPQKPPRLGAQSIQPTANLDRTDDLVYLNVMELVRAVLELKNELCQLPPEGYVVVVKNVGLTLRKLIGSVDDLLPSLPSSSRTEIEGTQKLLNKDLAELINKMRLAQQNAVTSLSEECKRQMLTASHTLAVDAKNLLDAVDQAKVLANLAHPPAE

Stk6 = target: T7, Stk6 (Homo sapiens, UniProt O14965); assay: Z'-Lyte FRET kinase assay (Invitrogen), Stk6; conditions: read-out: IC50, activity toward kinase Stk6
T7 construct: purchased Invitrogen (Carlsbad, Calif.), screening service
T7 sequence (O14965 1-403): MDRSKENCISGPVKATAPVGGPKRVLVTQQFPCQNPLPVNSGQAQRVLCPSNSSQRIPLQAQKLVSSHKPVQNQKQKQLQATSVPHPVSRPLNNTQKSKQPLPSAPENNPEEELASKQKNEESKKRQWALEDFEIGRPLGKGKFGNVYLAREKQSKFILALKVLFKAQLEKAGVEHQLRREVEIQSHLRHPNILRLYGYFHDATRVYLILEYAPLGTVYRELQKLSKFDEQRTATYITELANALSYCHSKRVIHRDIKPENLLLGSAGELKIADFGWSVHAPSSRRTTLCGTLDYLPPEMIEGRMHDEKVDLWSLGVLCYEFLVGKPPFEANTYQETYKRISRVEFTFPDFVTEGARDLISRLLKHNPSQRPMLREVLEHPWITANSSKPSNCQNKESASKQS

Ret = target: T8, Ret (Homo sapiens, UniProt P07949); assay: AlphaScreen kinase assay, Ret; conditions: read-out: IC50, activity toward kinase Ret
T8 construct: P1378.pET-SF BI-PTP RET H661-R1012 HIS; made in house
T8 sequence (P07949 with tags, fused parts or gaps): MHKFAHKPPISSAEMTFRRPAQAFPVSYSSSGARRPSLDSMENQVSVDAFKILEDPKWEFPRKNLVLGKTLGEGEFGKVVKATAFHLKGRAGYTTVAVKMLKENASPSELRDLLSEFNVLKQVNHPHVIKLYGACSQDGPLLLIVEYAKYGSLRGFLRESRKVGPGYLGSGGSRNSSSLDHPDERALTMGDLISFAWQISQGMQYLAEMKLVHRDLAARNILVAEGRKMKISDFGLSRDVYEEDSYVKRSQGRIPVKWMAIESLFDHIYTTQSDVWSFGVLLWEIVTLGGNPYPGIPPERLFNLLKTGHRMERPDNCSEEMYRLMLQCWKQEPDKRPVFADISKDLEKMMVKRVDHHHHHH

Yes = target: T9, Yes (Homo sapiens, UniProt P07947); assay: Z'-Lyte FRET kinase assay (Invitrogen), Yes; conditions: read-out: IC50, activity toward kinase Yes
T9 construct: purchased Invitrogen (Carlsbad, Calif.), screening service
T9 sequence (P07947 whole entry): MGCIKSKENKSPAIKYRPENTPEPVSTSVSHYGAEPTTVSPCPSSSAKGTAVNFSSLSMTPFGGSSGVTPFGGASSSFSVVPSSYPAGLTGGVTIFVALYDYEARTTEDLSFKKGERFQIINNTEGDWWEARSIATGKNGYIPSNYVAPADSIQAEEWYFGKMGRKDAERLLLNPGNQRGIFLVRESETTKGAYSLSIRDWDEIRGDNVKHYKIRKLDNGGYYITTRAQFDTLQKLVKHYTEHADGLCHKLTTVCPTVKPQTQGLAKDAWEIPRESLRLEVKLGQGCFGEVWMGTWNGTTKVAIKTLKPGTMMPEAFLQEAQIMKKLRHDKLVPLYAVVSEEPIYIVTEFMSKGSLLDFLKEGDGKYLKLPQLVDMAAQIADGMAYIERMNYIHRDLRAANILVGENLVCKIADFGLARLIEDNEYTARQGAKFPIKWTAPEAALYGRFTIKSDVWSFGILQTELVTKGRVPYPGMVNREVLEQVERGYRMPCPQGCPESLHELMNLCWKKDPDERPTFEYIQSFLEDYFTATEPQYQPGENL
How it was run: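 Read-out is the coumarin-to-fluorescein emission ratio, which rises when unphosphorylated peptide is cleaved by the development protease. Reactions contain serially diluted compound, 2 μM peptide and 10 μM ATP and run for 1 h at room temperature before 1 h development.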

Btk = target: T10, Btk (Homo sapiens, UniProt Q06187); assay: Z'-Lyte FRET kinase assay (Invitrogen), Btk; conditions: read-out: IC50, activity toward kinase Btk
T10 construct: purchased Invitrogen (assay run by Invitrogen)
T10 sequence (Q06187 whole entry): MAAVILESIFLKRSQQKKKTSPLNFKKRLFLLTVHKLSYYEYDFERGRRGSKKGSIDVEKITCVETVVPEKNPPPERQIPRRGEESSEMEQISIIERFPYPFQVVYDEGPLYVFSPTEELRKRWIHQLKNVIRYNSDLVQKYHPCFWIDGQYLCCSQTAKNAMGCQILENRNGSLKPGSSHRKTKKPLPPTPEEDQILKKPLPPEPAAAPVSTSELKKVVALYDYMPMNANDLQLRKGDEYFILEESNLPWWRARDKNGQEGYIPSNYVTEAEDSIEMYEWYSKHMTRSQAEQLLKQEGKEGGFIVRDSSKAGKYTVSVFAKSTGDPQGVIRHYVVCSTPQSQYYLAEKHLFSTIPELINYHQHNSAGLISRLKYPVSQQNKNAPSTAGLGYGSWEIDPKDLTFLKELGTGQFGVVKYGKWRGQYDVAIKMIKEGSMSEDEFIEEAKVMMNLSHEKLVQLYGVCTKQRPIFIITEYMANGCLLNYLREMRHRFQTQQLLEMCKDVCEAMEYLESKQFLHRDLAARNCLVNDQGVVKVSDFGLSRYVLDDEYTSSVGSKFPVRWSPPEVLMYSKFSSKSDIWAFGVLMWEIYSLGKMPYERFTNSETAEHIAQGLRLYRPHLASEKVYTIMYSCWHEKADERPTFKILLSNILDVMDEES

EphB2 = target: T11, EphB2 (Homo sapiens, UniProt P29323); assay: Z'-Lyte FRET kinase assay (Invitrogen), EphB2; conditions: read-out: IC50, activity toward kinase EphB2
T11 construct: purchased Invitrogen (assay run by Invitrogen)
T11 sequence (P29323 19-1055): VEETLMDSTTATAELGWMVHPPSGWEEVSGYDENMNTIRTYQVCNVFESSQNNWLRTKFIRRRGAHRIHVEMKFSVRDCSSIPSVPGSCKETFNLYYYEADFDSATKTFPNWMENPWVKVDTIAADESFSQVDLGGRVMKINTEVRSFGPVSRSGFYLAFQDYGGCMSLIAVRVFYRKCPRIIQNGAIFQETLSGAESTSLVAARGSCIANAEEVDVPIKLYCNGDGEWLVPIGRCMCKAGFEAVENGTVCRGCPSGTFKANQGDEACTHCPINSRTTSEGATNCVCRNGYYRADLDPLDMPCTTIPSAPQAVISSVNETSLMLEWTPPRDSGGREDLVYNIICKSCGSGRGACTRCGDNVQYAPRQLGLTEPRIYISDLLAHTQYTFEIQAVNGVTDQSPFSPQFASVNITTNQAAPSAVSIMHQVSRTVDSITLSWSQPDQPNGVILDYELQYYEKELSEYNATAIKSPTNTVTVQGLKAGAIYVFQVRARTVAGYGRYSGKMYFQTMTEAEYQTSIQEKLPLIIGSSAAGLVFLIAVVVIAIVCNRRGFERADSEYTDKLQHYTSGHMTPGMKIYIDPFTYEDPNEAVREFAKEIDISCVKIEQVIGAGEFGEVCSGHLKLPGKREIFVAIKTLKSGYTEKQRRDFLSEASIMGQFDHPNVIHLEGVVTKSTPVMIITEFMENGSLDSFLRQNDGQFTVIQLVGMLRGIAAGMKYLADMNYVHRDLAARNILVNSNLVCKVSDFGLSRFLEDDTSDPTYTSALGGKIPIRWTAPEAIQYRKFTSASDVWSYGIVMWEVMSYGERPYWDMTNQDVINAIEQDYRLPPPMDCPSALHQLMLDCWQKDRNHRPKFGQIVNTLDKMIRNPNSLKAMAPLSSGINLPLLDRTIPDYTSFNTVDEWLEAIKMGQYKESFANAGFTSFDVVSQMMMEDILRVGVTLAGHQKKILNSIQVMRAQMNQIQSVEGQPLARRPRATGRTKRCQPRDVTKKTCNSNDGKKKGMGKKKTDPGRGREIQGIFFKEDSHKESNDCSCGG
Source text: The effect of potential modulators of kinase activity can be measured in a variety of different assays known in the art. For example, direct radiometric, indirect FRET or AlphaScreen assays may be used to assess the level of phosphorylation of a substrate in the presence of test compounds in order to determine the inhibitory affect of the compound on the kinase. Invitrogen (Carlsbad, Calif.) uses a FRET based assay for Btk, EGFR, EphB2, Flt3, lrak4, Kdr, MAP2K1, MAPKAPK2, PDGFRB, PKC theta, Stk6 and Yes. For these assays, compounds of the invention were screened by Invitrogen using Z′-Lyte™ kinase assay.
Briefly, the Invitrogen kinase assay involves use of a specific peptide substrate optimized for each kinase, containing a fluorophore at each end that make up the FRET pair. The peptide sensitivity to proteolytic cleavage depends on phosphorylation of the peptide. Non-phosphorylated peptide is cleaved by a protease while peptide phosphorylated by the kinase is not cleaved. Cleavage of the peptide disrupts the FRET between the donor (coumarin) and acceptor (fluorescein) fluorophores, resulting in an increase in the ratio of donor emission to acceptor emission. The emission ratio of coumarin to fluorescein is used to assess the reaction progress. The extent of phosphorylation is determined from the emission ratio, which is low when the kinase is active (phosphorylated peptide is not cleaved, FRET pair connected) or higher for inhibited kinase (non-phosphorylated peptide is cleaved, FRET pair separated). Thus, the assay involves a kinase reaction in the presence of varying concentrations of a given compound, a development reaction with site specific protease, and detection of the fluorescent emission ratio of coumarin and fluorscein. […] Reaction conditions for each kinase are determined to provide optimal reaction times, incubation temperature, kinase and ATP concentrations. Test samples are made up in 1× kinase buffer (50 mM HEPES pH 7.5, 50 mM MgCl2, 5 mM EGTA, 0.05% BRIJ-35) and compound at desired concentration prepared in DMSO such that the final DMSO is 1%. […] Typically, assay plates are prepared to 10 μl final volume per sample, adding 2.5 μl of compound at 4× the desired concentration in 4% DMSO (serial dilution of compound provides concentration curve), 5 μl of the desired kinase mixed with Z′-LYTE™ peptide substrate (2× in 2× kinase buffer, final peptide at 2 μM), and 2.5 μl of 4×ATP solution. All kinase except for MAP2K1 were at 10 μM ATP in the kinase reaction, while MAP2K1 was at 100 μM. Samples are mixed and the kinase reaction is incubated 1 hour at room temperature, after which 5 μl of development solution is added and mixed. After incubation for another 1 hour at room temperature, 5 μl of stop reagent is added to each sample and mixed. The fluorescence signals are measured to determine the emission ratio.

B-Raf V600E = target: T12, B-Raf V600E (Homo sapiens, UniProt P15056, V600E); assay: AlphaScreen kinase assay, B-Raf V600E; conditions: read-out: IC50, activity toward kinase B-Raf V600E
T12 construct: P4254. pFastBacBD-CDC37 BRAF D437-K722-X, V600E; His6 with pFastBac HT leader (TEV site) (N); made in house; host or cells: Sf9 (baculovirus; chaperone CDC37 co-expressed)
T12 sequence (P15056 with tags, fused parts or gaps V600E): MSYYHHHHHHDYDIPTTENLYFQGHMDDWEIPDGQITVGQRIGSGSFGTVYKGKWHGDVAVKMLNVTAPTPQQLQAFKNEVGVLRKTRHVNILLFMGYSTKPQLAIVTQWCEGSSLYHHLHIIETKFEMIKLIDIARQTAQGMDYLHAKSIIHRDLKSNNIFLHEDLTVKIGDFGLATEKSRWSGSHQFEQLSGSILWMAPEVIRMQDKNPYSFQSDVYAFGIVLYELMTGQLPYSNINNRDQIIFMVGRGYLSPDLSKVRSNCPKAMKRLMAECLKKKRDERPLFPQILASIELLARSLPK

FGFR1 = target: T13, FGFR1 (Homo sapiens, UniProt P11362, C488A/C584S); assay: AlphaScreen kinase assay, FGFR1; conditions: read-out: IC50, activity toward kinase FGFR
T13 construct: P1351.pET N6 BI-PTP FGFR A458-E765-X C488A, C584S; made in house; host or cells: E. coli (PTP1B co-expressed)

Akt3 = Akt3 (Homo sapiens, UniProt Q9Y243); assay: AlphaScreen kinase assay, Akt3; conditions: read-out: IC50, activity toward kinase Akt3
How it was run: (§1)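 Inhibition reads as diminished acceptor emission, since unphosphorylated peptide fails to bridge antibody acceptor beads and streptavidin donor beads. Titration: eight points, 1:3 steps, stocks at 20 mM in DMSO.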

Gsk3β = Gsk3β (Homo sapiens, UniProt P49841); assay: AlphaScreen kinase assay, Gsk3β; conditions: read-out: IC50, activity toward kinase Gsk3β
How it was run: as §1

pIC50 (Kit)	pIC50 (Plk1)	pIC50 (Flt1)	pIC50 (MAP2K1)	pIC50 (Kdr)	pIC50 (Fak)	pIC50 (Pyk2)	pIC50 (Stk6)	pIC50 (Ret)	pIC50 (Yes)	pIC50 (Btk)	pIC50 (EphB2)	pIC50 (B-Raf V600E)	pIC50 (FGFR1)	pIC50 (Akt3)	pIC50 (Gsk3β)	SMILES
–	≥ 5.00	–	≥ 5.00	–	–	–	≥ 5.00	≥ 5.00	–	–	–	≥ 5.00	≥ 5.00	≥ 5.00	–	COc1cccc(C(=O)c2c[nH]c3nccc(-c4cccc(N)c4)c23)c1 [Compound P-0099]
–	≥ 5.00	–	–	–	–	–	≥ 5.00	≥ 5.00	–	≥ 5.00	–	≥ 5.00	–	–	≥ 5.00	Nc1cccc(-c2ccnc3[nH]cc(C(=O)c4ccc(Cl)cc4)c23)c1 [Compound P-0148]

More lines, now with the values behind:

SMILES	pIC50 (Kit)	pIC50 (Plk1)	pIC50 (Flt1)	pIC50 (MAP2K1)	pIC50 (Kdr)	pIC50 (Fak)	pIC50 (Pyk2)	pIC50 (Stk6)	pIC50 (Ret)	pIC50 (Yes)	pIC50 (Btk)	pIC50 (EphB2)	pIC50 (B-Raf V600E)	pIC50 (FGFR1)	pIC50 (Akt3)	pIC50 (Gsk3β)
Cc1occc1Sc1c[nH]c2ncccc12 [Compound P-0018]	≥ 5.00	≥ 5.00	≥ 5.00	≥ 5.00	≥ 5.00	≥ 5.00	≥ 5.00	≥ 5.00	–	–	–	–	–	–	–	–
Nc1cccc(-c2ccnc3[nH]cc(C(=O)c4cccc(Cl)c4Cl)c23)c1 [Compound P-0075]	–	≥ 5.00	–	–	≥ 5.00	–	–	–	≥ 5.00	≥ 5.00	≥ 5.00	≥ 5.00	≥ 5.00	–	–	–
Cc1ccccc1C(=O)c1c[nH]c2nccc(-c3cccnc3)c12 [Compound P-0083]	–	≥ 5.00	–	–	–	–	–	–	≥ 5.00	≥ 5.00	≥ 5.00	≥ 5.00	–	–	–	–
